System: LuxArray 1.04 E. coli strains (luxCDABE gene fusions)
Experiment: LuxArray 1.04 limonene stress of the reporter array in liquid culture
Format: cell-based
Conditions: for number of gene fusions upregulated by 2 fold or more / upregulation of gene fusion: 80% saturated limonene in LB; for number of gene fusions upregulated by 2 fold or more: LuxArray 1.04 (849 fusions)
Protocol: Microplates from −80° C. containing the LuxArray 1.04 E. coli strains were thawed and used to inoculate 100 μl LB medium supplemented with 100 μg/ml ampicillin in Costar#3595 flat bottomed 96-well microplates. Following overnight growth at 37° C., the plates were visually examined and any wells with little or no turbidity were recorded. Then these cultures were diluted by transfer of 15 μl to 135 μl LB medium in Costar #3595, flat bottom 96-well microplates and were moderately swirl shaken on an IKA Schuttler MTS 4 shaker at setting 400 for two hrs at 37° C. in a humidified box. Twenty μl of each these actively growing cultures were transferred to the corresponding well in sets of three microplates, one containing 80 μl of LB medium, another containing 80 μl of LB medium saturated with limonene at room temperature, and the third containing 40 μl of LB medium saturated with limonene and 40 μl of LB medium. An initial (zero time) reading was taken using an MLX microplate luminometer (Dynex) pre-warmed to 37° C. Then the plates were placed at 37° C. without shaking. Additional bioluminescent measurements were taken at 45, 90, and 135 minutes. To limit the number of microplates handled each day, LuxArray 1.04 microplates 1 to 5, microplates 6 to 10, microplates 11 to 15, and microplates […] were used on each of four different days.
The data were normalized to correct for growth-inhibition caused by limonene on the basis of each individual day that data was collected. The bioluminescence (RLU) of each individual culture for each day of experimentation under each of the three conditions, were added to determine the daily array total RLU. These were used to find a daily normalization factor (DNF) as follows:
DNF=Daily total array signal(time zero, LB control)/Daily total array signal(time x, condition y)
Each measurement from the corresponding day, time point, and condition was multiplied by DNF to yield a normalized signal. The data from wells that were scored to have little or no growth were not used in further analysis. The normalized data were analyzed with GeneSpring (Silicon Genetics) software, which averaged the signal from each of the duplicate cultures for each reporter gene fusion.
Thus, patterns of gene expression from the 80% saturated limonene in LB medium were further examined. […] These lists were examined and gene fusions with very low normalized RLU values (<0.012 RLU) at all conditions were eliminated. […] The designation of “>2X” is given for upregulation while “*” is listed if the expression was less than 2 fold increased. At 45 minutes, the expression of fourteen gene fusions was increased; none of these was increased 3 fold or higher. At 90 minutes, 37 gene fusions were induced; these included all but one of the gene fusions observed at 45 minutes. […] These were fusions of the luxCDABE reporter to the promoter regions of uhpT (3.8×), nirB (3.7×) and narK (3.6×). At 135 minutes, 39 gene fusions were induced, which included 13 fusions not observed at 45 or 90 minutes.

## C=C(C)[C@H]1CC=C(C)CC1 [limonene]
40% saturated limonene in LB medium
  upregulation of gene expression overall: little to no upregulation of gene expression
45 minutes
  number of gene fusions upregulated by 2 fold or more: fourteen
90 minutes
  number of gene fusions upregulated by 2 fold or more: 37 gene fusions
135 minutes
  number of gene fusions upregulated by 2 fold or more: 39 gene fusions
b0005 fusion, 45 minutes
  upregulation of gene fusion: * (“*” is listed if the expression was less than 2 fold increased)
b0005 fusion, 90 minutes
  upregulation of gene fusion: * (“*” is listed if the expression was less than 2 fold increased)
b0005 fusion, 135 minutes
  upregulation of gene fusion: >2X (The designation of “>2X” is given for upregulation)
b0123 (yacK) fusion, 45 minutes
  upregulation of gene fusion: * (“*” is listed if the expression was less than 2 fold increased)
b0314 (betT) fusion, 45 minutes
  upregulation of gene fusion: * (“*” is listed if the expression was less than 2 fold increased)
b0314 (betT) fusion, 90 minutes
  upregulation of gene fusion: >2X (The designation of “>2X” is given for upregulation)
b0314 (betT) fusion, 135 minutes
  upregulation of gene fusion: >2X (The designation of “>2X” is given for upregulation)
b0417 fusion, 45 minutes
  upregulation of gene fusion: * (“*” is listed if the expression was less than 2 fold increased)
b0417 fusion, 90 minutes
  upregulation of gene fusion: >2X (The designation of “>2X” is given for upregulation)
b0417 fusion, 135 minutes
  upregulation of gene fusion: >2X (The designation of “>2X” is given for upregulation)
b0422 (xseB) fusion, 45 minutes
  upregulation of gene fusion: * (“*” is listed if the expression was less than 2 fold increased)
b0422 (xseB) fusion, 90 minutes
  upregulation of gene fusion: >2X (The designation of “>2X” is given for upregulation)
b0422 (xseB) fusion, 135 minutes
  upregulation of gene fusion: * (“*” is listed if the expression was less than 2 fold increased)
b0572 fusion, 45 minutes
  upregulation of gene fusion: * (“*” is listed if the expression was less than 2 fold increased)
b0572 fusion, 90 minutes
  upregulation of gene fusion: >2X (The designation of “>2X” is given for upregulation)
b0572 fusion, 135 minutes
  upregulation of gene fusion: >2X (The designation of “>2X” is given for upregulation)
b0593 (entC) fusion, 45 minutes
  upregulation of gene fusion: * (“*” is listed if the expression was less than 2 fold increased)
b0593 (entC) fusion, 90 minutes
  upregulation of gene fusion: >2X (The designation of “>2X” is given for upregulation)
b0593 (entC) fusion, 135 minutes
  upregulation of gene fusion: >2X (The designation of “>2X” is given for upregulation)
b0839 (dacC) fusion, 45 minutes
  upregulation of gene fusion: * (“*” is listed if the expression was less than 2 fold increased)
b0839 (dacC) fusion, 90 minutes
  upregulation of gene fusion: >2X (The designation of “>2X” is given for upregulation)
b0839 (dacC) fusion, 135 minutes
  upregulation of gene fusion: >2X (The designation of “>2X” is given for upregulation)
b1188 (ycgB) fusion, 45 minutes
  upregulation of gene fusion: * (“*” is listed if the expression was less than 2 fold increased)
b1188 (ycgB) fusion, 90 minutes
  upregulation of gene fusion: >2X (The designation of “>2X” is given for upregulation)
b1188 (ycgB) fusion, 135 minutes
  upregulation of gene fusion: * (“*” is listed if the expression was less than 2 fold increased)
b1223 (narK) fusion, 45 minutes
  upregulation of gene fusion: * (“*” is listed if the expression was less than 2 fold increased)
b1223 (narK) fusion, 90 minutes
  upregulation of gene fusion: >2X (The designation of “>2X” is given for upregulation)
b1223 (narK) fusion, 135 minutes
  upregulation of gene fusion: >2X (The designation of “>2X” is given for upregulation)
b1676 (pykF) fusion, 45 minutes
  upregulation of gene fusion: >2X (The designation of “>2X” is given for upregulation)
b1676 (pykF) fusion, 90 minutes
  upregulation of gene fusion: >2X (The designation of “>2X” is given for upregulation)
b1676 (pykF) fusion, 135 minutes
  upregulation of gene fusion: >2X (The designation of “>2X” is given for upregulation)
b1872 (bisZ) fusion, 45 minutes
  upregulation of gene fusion: * (“*” is listed if the expression was less than 2 fold increased)
b1872 (bisZ) fusion, 90 minutes
  upregulation of gene fusion: >2X (The designation of “>2X” is given for upregulation)
b1872 (bisZ) fusion, 135 minutes
  upregulation of gene fusion: >2X (The designation of “>2X” is given for upregulation)
b1993 (cobU) fusion, 45 minutes
  upregulation of gene fusion: >2X (The designation of “>2X” is given for upregulation)
b1993 (cobU) fusion, 90 minutes
  upregulation of gene fusion: >2X (The designation of “>2X” is given for upregulation)
b1993 (cobU) fusion, 135 minutes
  upregulation of gene fusion: >2X (The designation of “>2X” is given for upregulation)
b2081 fusion, 45 minutes
  upregulation of gene fusion: >2X (The designation of “>2X” is given for upregulation)
b2081 fusion, 90 minutes
  upregulation of gene fusion: >2X (The designation of “>2X” is given for upregulation)
b2081 fusion, 135 minutes
  upregulation of gene fusion: * (“*” is listed if the expression was less than 2 fold increased)
b2237 (inaA) fusion, 45 minutes
  upregulation of gene fusion: * (“*” is listed if the expression was less than 2 fold increased)
b2237 (inaA) fusion, 90 minutes
  upregulation of gene fusion: >2X (The designation of “>2X” is given for upregulation)
b2237 (inaA) fusion, 135 minutes
  upregulation of gene fusion: >2X (The designation of “>2X” is given for upregulation)
b2322 fusion, 45 minutes
  upregulation of gene fusion: * (“*” is listed if the expression was less than 2 fold increased)
b2322 fusion, 90 minutes
  upregulation of gene fusion: >2X (The designation of “>2X” is given for upregulation)
b2322 fusion, 135 minutes
  upregulation of gene fusion: >2X (The designation of “>2X” is given for upregulation)
b2367 (emrY) fusion, 45 minutes
  upregulation of gene fusion: * (“*” is listed if the expression was less than 2 fold increased)
b2367 (emrY) fusion, 90 minutes
  upregulation of gene fusion: >2X (The designation of “>2X” is given for upregulation)
b2367 (emrY) fusion, 135 minutes
  upregulation of gene fusion: * (“*” is listed if the expression was less than 2 fold increased)
b2451 fusion, 45 minutes
  upregulation of gene fusion: * (“*” is listed if the expression was less than 2 fold increased)
b2451 fusion, 90 minutes
  upregulation of gene fusion: >2X (The designation of “>2X” is given for upregulation)

Reference: patent US20040009485A1, “Cellular arrays for the identification of altered gene expression” (priority 2002, published 2004)
